Data published in patent publication US6384040B1, “Condensed 4-thioxopyrimidine derivatives as microbicides” (Syngenta Crop Protection, Inc., priority 1998, dated 2002).

Legend:
Uncinula necator = assay: Action against Uncinula necator on vines; assay type: in vivo; details: vine cuttings sprayed with 200 ppm a.i., infected 24 hours later, evaluation ca. 14 days after infection
Experimental: Example B-3: Action Against Uncinula necator on Vines
5 week old vine cuttings are sprayed with a spray mixture (200 ppm a.i.) prepared from a wettable powder formulation of the test compound. The plants are infected 24 hours later by conidias from strongly infested vine leafs that are shaken off over the test plants. The plants are then incubated at 26° C. and 60% relative humidity. The evaluation of the fungal infestation is made ca. 14 days after infection.

melting point [°C] | SMILES | control activity (Uncinula necator)
68 to 70 | CCCCn1c(OCCC)nc2sc(Cl)cc2c1=S [Compound 3, 3-butyl-6-chloro-2-propoxy-4-thioxo-thieno[2,3-d]pyrimidine] | complete control activity
110 to 112 | CCCOc1nc2sc(Br)cc2c(=S)n1CCC [Compound 2, 6-bromo-2-propoxy-3-propyl-4-thioxo-thieno[2,3-d]pyrimidine] | complete control activity
 | CCCOc1nc2sc(Cl)cc2c(=S)n1CCC [Compound 1, 6-Chloro-2-propoxy-3-propyl-4-thioxo-thieno[2,3-d]pyrimidine] | complete control activity
95 to 97 | CCCCn1c(OCCC)nc2sc(Br)cc2c1=S [Compound 4, 6-bromo-3-butyl-2-propoxy-4-thioxo-thieno[2,3-d]pyrimidine] | complete control activity
